Consider 13 molecules from US12350249B2, “Efficient anti-bacterial hydroxy acid ester oligomer” (NANJING BIOSERICA ERA BIOLOGICAL TECHNOLOGY CO., LTD., priority 2020, dated 2025).

Converted amounts (≈) assume the structure as drawn.

As a reminder, the MIC is the least concentration at which growth counts as inhibited. Read a low MIC as a more susceptible organism.

For experiment [1], the system named is Escherichia coli ATCC25922. Description: Minimum inhibitory concentration MIC (agar method), Table 3. Format: cell-based. The procedure:
(§1) Anti-bacterial tests and c log P theoretical calculation are performed on the products of the embodiment 2 and the embodiment 3, as shown in Table 3. [table]

Experiment [2] relates to Escherichia coli ATCC25922. The experiment can be described thus: Minimum Inhibitory Concentration Test (Nutrition Broth Method), Table 3. The format is cell-based. The procedure: as §1
In experiment [3] the test system is Escherichia coli ATCC 25922. The experiment can be described thus: Anti-bacterial experiment, GB/T 20944.3-2008 shake flask method. The format is cell-based. The procedure: Adding 10 g of 3-hydroxybutyrate ethyl ester and 0.01 g of zinc acetate (i.e. a mass ratio of 3-hydroxybutyrate ethyl ester is 0.1%) in a three-necked flask with mechanical stirring, a thermometer and a distillation device, wherein a stirring speed is approximately 150 revolutions; under an environment with a trace of nitrogen, increasing a temperature to 150° C. with a speed of 0.5-3° C./min to react for 1 hour, then stopping reaction to obtain a 3-HB oligomer; detecting a degree of polymerization by a mass spectrometry, wherein an anti-bacterial experiment refers to GB/T 20944.3-2008 Textiles-Evaluation for anti-bacterial activity-Part 3: Shake flask method, a strain used is Escherichia coli ATCC 25922.

Experiment [4] relates to C. albicans. The settings on record: disclosed in CN110452115A; cited from earlier work.
Experiment [5] has as its system S. aureus. The settings on record: disclosed in CN110452115A; cited from earlier work.
Experiment [6] concerns K. pneumoniae. To be noted: disclosed in CN110452115A; cited from earlier work.

With `COC(=O)C[C@@H](C)O` [Embodiment 2-1, R-(−)-3-hydroxybutyric methyl ester], the “Minimum inhibitory concentration MIC (agar method)” value in experiment [1] is 10%. Further, the lowest concentration to inhibit growth in experiment [2] (MIC) was 62.5 µg/mL (≈ 529 µM).

Regarding `CCOC(=O)C[C@@H](C)O` [Embodiment 2-2, R-(−)-3-hydroxybutyrate ethyl ester], in experiment [1], the “Minimum inhibitory concentration MIC (agar method)” value turned out to be 5%. The minimum inhibitory concentration (MIC) in experiment [2] is 31.2 µg/mL (≈ 236 µM).

With `CCCOC(=O)C[C@@H](C)O` [Embodiment 2-3, R-(−)-3-hydroxybutyrate propyl ester], the “Minimum inhibitory concentration MIC (agar method)” value in experiment [1] was determined as 2%. The molecule further displayed a minimal inhibitory concentration (MIC) in experiment [2] of 15.6 µg/mL (≈ 107 µM).

In the case of `CCCCOC(=O)C[C@@H](C)O` [Embodiment 2-4, R-(−)-3-hydroxybutyrate butyl ester], in experiment [1], the “Minimum inhibitory concentration MIC (agar method)” value is given as 1%. The minimum inhibitory concentration (MIC) in experiment [2] was determined as 7.81 µg/mL (≈ 48.7 µM).

On to `CCCCCOC(=O)C[C@@H](C)O` [Embodiment 2-5, R-(−)-3-hydroxybutyrate pentyl ester], for which, in experiment [1], the “Minimum inhibitory concentration MIC (agar method)” value turned out to be 0.5%. Besides, the minimum inhibitory concentration (MIC) in experiment [2] amounted to 3.91 µg/mL (≈ 22.4 µM).

Regarding `CCCCCCOC(=O)C[C@@H](C)O` [Embodiment 2-6, R-(−)-3-hydroxybutyrate hexyl ester], the “Minimum inhibitory concentration MIC (agar method)” value in experiment [1] worked out at 0.25%. For the same molecule, the minimum inhibitory concentration (MIC) in experiment [2] was 1.95 µg/mL (≈ 10.4 µM).

As for `CCCCCCCOC(=O)C[C@@H](C)O` [Embodiment 2-7, R-(−)-3-hydroxybutyrate heptyl ester], the “Minimum inhibitory concentration MIC (agar method)” value in experiment [1] is over 15%. The molecule also came in with an MIC in experiment [2] of 31.2 µg/mL (≈ 154 µM).

Turning to `CCCCCCCCOC(=O)C[C@@H](C)O` [Embodiment 2-8, R-(−)-3-hydroxybutyrate octyl ester], the “Minimum inhibitory concentration MIC (agar method)” value in experiment [1] is recorded as over 20%. For the same molecule, in experiment [2], the MIC was determined as 31.2 µg/mL (≈ 144 µM).

For `CCCCCCOC(=O)[C@@H](C)O` [Embodiment 3-1, R-(−)-lactate hexyl ester], the “Minimum inhibitory concentration MIC (agar method)” value in experiment [1] was found to be 0.25%. Also, the minimum inhibitory concentration (MIC) in experiment [2] is 1.95 µg/mL (≈ 11.2 µM).

As for `CCOC(=O)[C@@H](C)O` [Embodiment 3-2, R-(−)-lactate ethyl ester], the “Minimum inhibitory concentration MIC (agar method)” value in experiment [1] was 5.25%. For the same molecule, the MIC in experiment [2] stood at 35.5 µg/mL (≈ 301 µM).

As for `CCCCCCCOC(=O)[C@@H](C)O` [Embodiment 3-3, R-(−)-lactate heptyl ester], in experiment [1], the “Minimum inhibitory concentration MIC (agar method)” value is 4.38%. This molecule registered a minimal inhibitory concentration (MIC) in experiment [2] of 28.6 µg/mL (≈ 152 µM).

Take “R-(−)-3-hydroxybutyrate ethyl ester oligomer [Embodiment 1-3]”: the “Anti-bacterial rate (%)” value in experiment [3] stood at 99%.

With poly-3-hydroxybutyrate oligomer, the results for the “minimum inhibitory concentration (MIC)” value in experiment [4], in experiment [5] and in experiment [6] were 25000 µg/mL, 6250 µg/mL and 12500 µg/mL, respectively.
